{"source": "paper PMC6823370", "about": "“A novel nucleoside rescue metabolic pathway may be responsible for therapeutic effect of orally administered cordycepin” (Scientific Reports, 2019)", "key": {"[1]": {"experiment": "Plasma stability of cordycepin in rat plasma", "type": "in vitro ADME", "details": "read-out: ex vivo stability half-life (t1/2) in plasma", "procedure": "Stability of cordycepin in plasma was tested using human and rat plasma by following a previously reported method with minor modifications. Cordycepin was spiked into the plasma at 10 µM and the samples were incubated in a shaking incubator (Thermo Scientific MaxQ4000, Waltham, MA, USA) at 37 °C and shaken at 250 rpm. Samples (100 µL) were withdrawn at predetermined time points. […] The experiments were performed in triplicates.\nSamples from studies of plasma stability, protein binding, biorelevant solubility and liver microsomal stability were subjected to liquid-liquid extraction and HPLC-UV analysis. To 100 µL of sample, internal standard (2′-deoxyadenosine) was spiked at 10 µg/mL and 300 µL of 0.1 M NaOH was added. Extraction solvent (3 mL) of ethyl acetate-isopropyl alcohol (85:15, v/v) was added and vortex-mixed for 10 min. Samples were then centrifuged at 1160 g for 5 min and the supernatant was transferred and dried under N2 gas. Dried samples were reconstituted with 100 uL of deionised distilled water (DDW) and 40 µL was injected into the HPLC-UV. The HPLC-UV setup was adopted from a validated method[22] with addition of a gradient scheme to elute the impurities from samples. Waters Alliance 2695 module with Waters 996 PDA detector was used for the HPLC-UV system with Capcell Pak C18 3 µm, 4.6 × 150 mm as the stationary phase. […]"}, "[2]": {"experiment": "Liver microsomal stability, rat liver microsomes", "type": "in vitro ADME", "details": "for Fh, parallel-tube model / Fh, well-stirred model / CLint scaled at 1 µM: rat liver microsome, pentostatin −; for CLint scaled at 1 µM: rat, liver microsomes", "procedure": "(§1) Human and rat liver microsomes were used in the experiment following previously reported methods[49],[50]. Microsomes were used at 0.5 mg protein/mL and cordycepin was tested at 1 µM. […] The reaction mixture was incubated in the shaking incubator at 37 °C for 30 min with sampling every 10 min. The results of intrinsic clearance and the fraction that escapes hepatic metabolism (by both well-stirred and parallel-tube models) were calculated by previously reported equations and physiological parameters[50]–[52]. The experiments were performed in triplicates.\n(§2) Samples from studies of plasma stability, protein binding, biorelevant solubility and liver microsomal stability were subjected to liquid-liquid extraction and HPLC-UV analysis. To 100 µL of sample, internal standard (2′-deoxyadenosine) was spiked at 10 µg/mL and 300 µL of 0.1 M NaOH was added. Extraction solvent (3 mL) of ethyl acetate-isopropyl alcohol (85:15, v/v) was added and vortex-mixed for 10 min. Samples were then centrifuged at 1160 g for 5 min and the supernatant was transferred and dried under N2 gas. Dried samples were reconstituted with 100 uL of deionised distilled water (DDW) and 40 µL was injected into the HPLC-UV. The HPLC-UV setup was adopted from a validated method[22] with addition of a gradient scheme to elute the impurities from samples. Waters Alliance 2695 module with Waters 996 PDA detector was used for the HPLC-UV system with Capcell Pak C18 3 µm, 4.6 × 150 mm as the stationary phase. Mobile phase was a mixture of acetonitrile (A) and DDW (B) at flow rate 0.8 mL/min with a gradient scheme of the following: 0–9 min, B 94%; 9–14 min, B decreased to 20%; 14–24 min, B 20%; 24–26 min, B increased to 94%; and 26–35 min, B 94%. Calibration curves were constructed at a range of 10 – 20000 ng/mL and chromatograms were obtained at 259 nm of wavelength."}, "[3]": {"experiment": "Liver microsomal stability, human liver microsomes", "type": "in vitro ADME", "details": "human liver microsome, pentostatin −; for CLint scaled at 1 µM: human, liver microsomes", "procedure": "as §1, §2"}, "[4]": {"experiment": "In vivo pharmacokinetics in rats after intravenous or oral cordycepin", "parameters": "species or system Sprague Dawley rats", "details": "for AUC(0-t) / C0 / clearance: in vivo; for AUC(0-t) / C0 / AUC0→t/Dose of cordycepin: rat plasma; for AUC(0-t): read-out: AUC0→t of cordycepin; for C0: read-out: C0 of cordycepin; for clearance: read-out: CL of cordycepin (converted)", "procedure": "Protocols for the animal experiments in this study were reviewed and approved by the University of Nottingham Ethical Review Committee in accordance with the Animals [Scientific Procedures] Act 1986. Four male Sprague Dawley rats (Charles River Laboratories, UK) of 300–350 g body weight were used. The animals were housed in the Bio Support Unit, University of Nottingham at controlled temperature, 12 h light/dark cycle and free access to food and water. The animals were allowed to acclimatise for at least six days prior to any procedures.\nPrior to pharmacokinetic studies, jugular vein cannulation surgery was performed under general anaesthesia (<3% isoflurane inhalation) for blood sampling or intravenous drug administration. Following two nights of recovery from surgery, the animals were intravenously or orally administered with the PBS-based formulation (5.5 mg/mL cordycepin) developed in a previously reported study. The dose was 8 or 20 mg/kg for intravenous administration and 8 or 80 mg/kg for oral administration. […] When whole blood was analysed, an aliquot was withdrawn immediately after mixing with the pretreated pentostatin. Otherwise, the mixture was centrifuged (3000 g, 10 min) to obtain plasma and samples were stored within the storage conditions tested prior to analysis.\nSamples from Caco-2 permeability, in vitro determination of CordyTP formation and in vivo experiments were subjected to protein precipitation followed by LC-MS/MS analysis. To 50 µL of rat plasma sample, 150 µL of internal standard solution (1.67 µg/mL 2-chloroadenosine in methanol) was added. The samples were then vortex-mixed for 10 s and were centrifuged for 3 min at 17949 g. Supernatant (20 µL) was collected and diluted 10-fold with DDW before injection into the LC-MS/MS for analysis of cordycepin and 3′-deoxyinosine. For analysis of CordyTP, the supernatant was filtered using filter tubes mentioned above and injected without dilution. Tissue samples were homogenised using Bullet Blender Gold (Next Advance, Inc., Troy, NY) in methanol (1:3 w/v) and centrifuged for 3 min at 17949 g. The supernatant was filtered and injected for analysis of CordyTP or diluted 10-fold with DDW for analysis of cordycepin and 3′-deoxyinosine. The LC-MS/MS system was a API4000 QTrap (AB Sciex, Warrington, UK) equipped with HPLC setup of SCL10Avp controller, LC10ADvp pump and SILHTC autosampler (Shimadzu, Milton Keynes, UK). Three different methods were utilised for each compound and multiple reaction monitoring parameters of the MS/MS conditions are shown in Table 1. The HPLC conditions including stationary phases and specific mass spectrometry parameters are shown in Supplementary Information 2. The LC-MS/MS method for cordycepin was fully validated in terms of accuracy, precision, sensitivity, selectivity, linearity and sample storage stability in accordance with the Guidance for Industry, Bioanalytical Method Validation, (2018) published by the US FDA (refer to Supplementary Information 3 for validation procedures and results)[53].\nData are presented as mean ± standard deviation (SD). A two-tailed unpaired t-test was applied for assessment of statistical significance of differences between two groups. For three or more groups, the statistical significance was assessed by application of a one-way ANOVA followed by Tukey’s multiple comparisons test. A p-value lower than 0.05 was deemed statistically significant. Statistical analyses were conducted using GraphPad Prism version 7.01 (GraphPad Software, Inc., La Jolla, CA, USA). Pharmacokinetic parameters were obtained by non-compartmental analysis using Phoenix WinNonlin 6.3 software (Pharsight, Mountain View, CA, USA).\nFor calculation of pharmacokinetic parameters, the plasma concentration-time curve was plotted in a semi-log scale. From the plot, the elimination rate constant (ke) was calculated. Elimination half-life (t1/2) wasthen calculated using the following equation: […]"}, "[5]": {"details": "text summary over rat and human liver microsomes, without pentostatin"}, "[6]": {"details": "male, Sprague Dawley, intravenous cordycepin 8 mg/kg"}, "[7]": {"details": "male, Sprague Dawley, intravenous cordycepin 20 mg/kg"}}, "note": "Read-outs that look alike come from different tables or passages of the source."}
{"smiles": "Nc1ncnc2c1ncn2[C@@H]1O[C@H](CO)C[C@H]1O", "note": "[cordycepin, 3′-deoxyadenosine]", "values": [{"measurement": "half-life at 10 µM", "setting": "[1]", "result": "25 ± 0.7", "unit": "min"}, {"measurement": "Fh, parallel-tube model", "setting": "[2]; NADPH +", "result": "0.1 ± 0.0", "unit": "%"}, {"measurement": "Fh, well-stirred model", "setting": "[2]; NADPH +", "result": "12.4 ± 0.9", "unit": "%"}, {"measurement": "Fh, parallel-tube model", "setting": "[2]; NADPH −", "result": "0.1 ± 0.1", "unit": "%"}, {"measurement": "Fh, well-stirred model", "setting": "[2]; NADPH −", "result": "12.5 ± 1.5", "unit": "%"}, {"measurement": "CLint scaled at 1 µM", "setting": "[2]; NADPH +", "result": "392 ± 31.3", "unit": "mL/min/kg"}, {"measurement": "CLint scaled at 1 µM", "setting": "[2]; NADPH −", "result": "390 ± 51.4", "unit": "mL/min/kg"}, {"measurement": "Fh calculated from CLint, parallel-tube model", "setting": "[2]; [5]", "result": "~0", "unit": "%"}, {"measurement": "Fh calculated from CLint, well-stirred model", "setting": "[2]; [5]", "result": "10–13%"}, {"measurement": "Fh, parallel-tube model", "setting": "[3]; NADPH +", "result": "0.0 ± 0.0", "unit": "%"}, {"measurement": "Fh, well-stirred model", "setting": "[3]; NADPH +", "result": "10.3 ± 0.7", "unit": "%"}, {"measurement": "Fh, parallel-tube model", "setting": "[3]; NADPH −", "result": "0.0 ± 0.0", "unit": "%"}, {"measurement": "Fh, well-stirred model", "setting": "[3]; NADPH −", "result": "10.4 ± 0.3", "unit": "%"}, {"measurement": "CLint scaled at 1 µM", "setting": "[3]; NADPH +", "result": "181 ± 13.9", "unit": "mL/min/kg"}, {"measurement": "CLint scaled at 1 µM", "setting": "[3]; NADPH −", "result": "179 ± 5.3", "unit": "mL/min/kg"}, {"measurement": "AUC(0-t)", "setting": "[4]; [6]", "result": "196 ± 94", "unit": "ng·h/mL"}, {"measurement": "C0", "setting": "[4]; [6]", "result": "890 ± 576", "unit": "ng/mL"}, {"measurement": "AUC(0-t)", "setting": "[4]; [7]", "result": "232 ± 106", "unit": "ng·h/mL"}, {"measurement": "C0", "setting": "[4]; [7]", "result": "12300 ± 8840", "unit": "ng/mL"}, {"measurement": "clearance", "setting": "[4]; male, Sprague Dawley, rat, intravenous cordycepin 8 mg/kg", "result": 1720, "unit": "mL/min/kg"}, {"measurement": "clearance", "setting": "[4]; male, Sprague Dawley, rat, intravenous cordycepin 20 mg/kg", "result": 1520, "unit": "mL/min/kg"}, {"measurement": "blood plasma ratio", "setting": "[4]; male, Sprague Dawley, rat, whole blood and plasma, intravenous, 20 mg/kg, intravenous cordycepin 20 mg/kg", "result": "0.68 ± 0.27"}, {"measurement": "AUC0→t/Dose of cordycepin", "setting": "[4]; intravenous cordycepin 8 mg/kg", "result": "25 ± 12", "unit": "ng·kg·h/mL/mg"}, {"measurement": "AUC0→t/Dose of cordycepin", "setting": "[4]; intravenous cordycepin 20 mg/kg", "result": "12 ± 5", "unit": "ng·kg·h/mL/mg"}, {"measurement": "increase of AUC when dose increased from 8 to 20 mg/kg", "setting": "[4]; rat, intravenous cordycepin", "result": 1.18, "unit": "fold"}, {"measurement": "increase of C0 when dose increased from 8 to 20 mg/kg", "setting": "[4]; rat, intravenous cordycepin", "result": 13.8, "unit": "fold"}, {"measurement": "blood/plasma ratio", "setting": "[4]; rat, intravenous cordycepin 20 mg/kg", "result": "< 1"}, {"measurement": "cordycepin in plasma after oral administration", "setting": "[4]; rat, oral cordycepin 8 or 80 mg/kg, any time point, limit of quantification 2 ng/mL", "result": "not detected in plasma at all"}]}
